Reference: patent US20120237567A1, “MODULATING LYMPHATIC FUNCTION” (THE GENERAL HOSPITAL CORPORATION, priority 2004, published 2012)

What was measured:
[1] = tested on: mouse tail lymphatic network (initial lymphatics); test: Mouse tail microlymphangiography with residence time distribution (RTD) analysis of lymphatic function; format: in vivo, mice (C57BL/6); settings: for overall lymphatic fluid velocity in the dermal lymphatic network: collecting lymphatics not ligated
Method: Studies were carried out in 7-10 week old female C57BL/6 and nude mice. Forty-eight mice were used for these experiments: sixteen for the inhibition experiments, fifteen for the ligation experiment, and seventeen additional controls. All procedures were carried out following the guidelines of the Institutional Animal Care and Use Committee of the Massachusetts General Hospital.
Mice in the experimental groups 5 and 6 underwent ligation of the deep collecting lymphatic vessels of the tail immediately before the microlymphangiography, to avoid development of edema (FIG. 1). Mice were anesthetized intramuscularly (90 mg/kg Ketamine and 9 mg/kg Xylazine) and placed on a heated surgical microscopy table. The translucent deep collecting lymphatic vessels were separated from the tail veins with microsurgical forceps through small, bilateral incisions in the axial direction, and ligated with a 10-O non-absorbable suture (Prolene, Ethicon, N.J., United States). The incision site was closed with surgical glue, taking care to avoid circumferential tension on the tail that could interfere with superficial lymphatic function.
Fluorescence intensity measurements were carried out using RTD analysis as described previously (Swartz et al., Am J Physiol. 1996, 270:H324-H329). Briefly, mice were anesthetized intramuscularly (90 mg/kg Ketamine and 9 mg/kg Xylazine) and placed on a small plate. 2.5% FITC-dextran (MW=2 million; Sigma, St. Louis, Mo.) in PBS was infused into the interstitial tissue of the tail tip, with a constant pressure of 40 cm H2O via a 30-gauge needle. […] The mouse was transferred to an epifluorescence microscopy setup as described previously (Leu et al., Am J Physiol. 1994, 267:H1507-H1513). […] The temporally consecutive fluorescent images were analyzed offline using NIH Image Analysis software. The average fluorescence intensity was determined for each image, and used to calculate the mean residence time for each region, the overall lymph fluid velocity in the tail lymphatic network, and the mean LV diameter.

[2] = set-up: species or system C57BL/6 mice; settings: mouse, in vivo
Method: 8 week old, female C57BL/6 mice were weighed and anesthetized (90 mg/kg Ketamine and 9 mg/kg Xylazine). Mean arterial pressure (MAP) was measured by cannulating the exposed left carotid artery with a PE-10 intravascular polyethylene catheter, connected to a pressure transducer (Gould Inc, Valley View, Ohio).

[3] = 3 days of treatment, not ligated, mean±SE
[4] = after ligation of the collecting lymphatics, 3 days of treatment, mean±SE

Q: With `CN=C(N)NCCC[C@@H](N)C(=O)O` [D-NMMA] as the compound, how does the “overall lymphatic fluid velocity in the dermal lymphatic network” value ([1]; 3 days of treatment, mean±SE) read?
A: 8.7±0.4 μm/s

Q: What about the “injection rate of the fluorescent tracer into the interstitium” value [1, 3] of the same compound?
A: 15.7 ± 1.5 nL/min

Q: What about the “mean lymphatic vessel diameter” value [1, 3] of the same compound?
A: 61.6±1.6 μm

Q: For `CNC(=N)NCCC[C@H](N)C(=O)O` [L-NMMA, NG-monomethyl-L-arginine], which “decrease of overall lymphatic fluid velocity compared to controls that had received D-NMMA” value ([1]; 3 days of L-NMMA treatment, not ligated) is on record?
A: 42%

Q: What about the “overall lymphatic fluid velocity in the dermal lymphatic network” value ([1]; 3 days of treatment, mean±SE) of the same compound?
A: 5.1±0.6 μm/s

Q: And the “injection rate of the fluorescent tracer into the interstitium” value [1, 3]?
A: 11.3 ± 1.2 nL/min

Q: And the “mean lymphatic vessel diameter” value [1, 3]?
A: 61.5±0.7 μm

Q: What about the injection rate [1, 4] of the same compound?
A: 25.0 ± 1.3 nL/min

Q: And the “mean lymphatic vessel diameter” value [1, 4]?
A: 77.2±2.1 μm

Q: And the “lymphatic fluid velocity compared with controls treated with D-NMMA or AP (FIG. 2A)” value ([1]; not ligated, result in words)?
A: significantly lower

Q: What about the “mean lymphatic vessel diameter compared with controls (FIG. 2C)” value ([1]; not ligated, result in words) of the same compound?
A: not different

Q: And the “MAP (mean arterial pressure)” value [2]?
A: 71.7±1.4 mmHg
